Key:
[1] = test system: cells that depend on FLT3 for growth; assay: Standard 72-hour cell proliferation assay, FLT3 dependent cell lines taken together; type: cell-based; conditions: 72-hour proliferation; depending on the cell type
Procedure: The cell lines that were tested included those that are dependent on FLT3ITD mutant activity for growth (MV4-11 and Baf3-FLT3ITD), FLT3 wt activity for growth (Baf3FLT3) and those that grow independent of FLT3 activity (THP-1). […] Baf3-FLT3 and Baf3-FLT3ITD cell lines were obtained from Dr. Michael Henrich and the Oregon Health Sciences University. The Baf3 FLT3 cell lines were created by stable transfection of parental Baf3 cells (a murine B cell lymphoma line dependent on the cytokine IL-3 for growth) with either wild-type FLT3 or FLT3 containing the ITD insertion in the juxatamembrane domain of the receptor resulting in its constitutive activation. Cells were selected for their ability to grow in the absence of IL-3 and in either the presence of FLT3 ligand (Baf3-FLT3) or independent of any growth factor (Baf3-ITD). […]
Dose responses for the individual compounds alone were determined for each cell line using a standard 72-hour cell proliferation assay (see FIGS. 6.1-6.8). […]
Cell proliferation assay for MV4-11, Baf3-ITD, Baf3-FLT3 and THP-1 cells. […] Total cell growth is quantified as the difference in luminescent counts (relative light units, RLU) of cell number at Day 0 compared to total cell number at Day 3 (72 hours of growth and/or compound treatment). One hundred percent inhibition of growth is defined as an RLU equivalent to the Day 0 reading. […]

MV4-11 cells = assay: Annexin V Staining (apoptosis); type: cell-based, human; conditions: MV4-11, 48 hours, fixed ratio 4:1 Tipifarnib and Compound A
From the text: The ultimate goal of treatment for FLT3 related disorders is to kill the disease causative cells and to cause regression of disease. […] Annexin V binding to phosphotidyl serine that has translocated from the inner leaflet of the plasma membrane to the outer leaflet of the plasma membrane and is a well established way to measure apoptosis of cells. See van Engeland M., L. J. Nieland, et al. (1998) “Annexin V-affinity assay: a review on an apoptosis detection system based on phosphatidylserine exposure.” Cytometry. 31(1):1-9.
After the compound incubations, treated cells were harvested and stained with Annexin V-PE and 7-AAD using the Guava Nexin apoptosis kit according to the protocol in the Biological Activity Measurements section hereafter. Annexin V staining peaks at 60% because cells late in apoptosis begin to fall apart and are considered debris. […] Statistical analysis using the above described method of Chou and Talalay was also performed to determine the synergy of the combination. […] The magnitude of the synergistic induction of apoptosis of MV4-11 cells by the combination of an FTI and a FLT3 inhibitor could not be predicted by those skilled in the art. […]
Annexin V Staining. […] All annexin positive cells were considered apoptotic and percent Annexin positive cells was calculated.

[2] = cited from earlier work
[3] = multicenter Phase II trial, relapsed AML
[4] = patients with relapsed and refractory AML, phase I

Cn1cncc1C(N)(c1ccc(Cl)cc1)c1ccc2c(c1)c(-c1cccc(Cl)c1)cc(=O)n2C (single isomer, unassigned; (+)) [Tipifarnib, (+)-6-[amino(4-chlorophenyl)(1-methyl-1H-imidazol-5-yl)methyl]-4-(3-chlorophenyl)-1-methyl-2(1H)-quinolinone]
single agent potency for inhibition of proliferation [1]: high nanomolar to high picomolar range
shift of EC50 for the induction of annexin V staining in combination (MV4-11 cells): more than eight-fold
>50% reduction in bone marrow blasts [2, 3]: 31 of 50
complete responses (bone marrow blasts <5%) [2, 3]: 17 of 50
patients achieving complete remission [2, 4]: 2 patients
response rate [2, 4]: ~30%
